Data: patent US20250082674A1, “METHODS OF TREATING COPPER METABOLISM-ASSOCIATED DISEASES OR DISORDERS” (priority 2021, published 2025)
Like-named read-outs stand apart in the source and are kept apart here.

Test system: patients with Wilson disease (WD)
Settings: for Transformed CGI-I Mean (SD): scores −3 (Very much improved) to 3 (Very much worse)
Description: Dose modification, if required, was made as described herein.

## Bis-choline tetrathiomolybdate [BC-TTM]
Baseline
  CGI-S (1 to 7, 1 is normal) Mean: 2.7
  UWDRS Part II (0-40) Mean: 3.4
  UWDRS Part III (0-175) Mean: 13.99
  UWDRS Part III functional subscale (0-10) Mean: 1.390
  UWDRS Part III-arising from chair (0-4) Mean: 0.3
  UWDRS Part III-gait (0-4) Mean: 1.40
  UWDRS Part III-handwriting (0-4) Mean: 0.6
  UWDRS Part III-speech (0-4) Mean: 0.8
Study 301 extension period, interim
  key secondary endpoints (UWDRS, CGI) versus baseline: statistically significant improvements from baseline
Week 24
  CGI-S (1 to 7, 1 is normal) LSM (SE) change from baseline: −0.3 (0.07)
  CGI-S (1 to 7, 1 is normal) Mean (SD) change from baseline: −0.2 (0.79)
  UWDRS Part II (0-40) LSM (SE) change from baseline: −0.4 (0.20)
  UWDRS Part II (0-40) Mean (SD) change from baseline: −0.3 (1.99)
  UWDRS Part III (0-175) LSM (SE) change from baseline: −1.32 (0.619)
  UWDRS Part III (0-175) Mean (SD) change from baseline: −0.74 (5.937)
  UWDRS Part III functional subscale (0-10) LSM (SE) change from baseline: −0.158 (0.0547)
  UWDRS Part III functional subscale (0-10) Mean (SD) change from baseline: −0.139 (0.4540)
  UWDRS Part III-arising from chair (0-4) LSM (SE) change from baseline: −0.1 (0.03)
  UWDRS Part III-arising from chair (0-4) Mean (SD) change from baseline: 0.0 (0.38)
  UWDRS Part III-gait (0-4) LSM (SE) change from baseline: −0.21 (0.100)
  UWDRS Part III-gait (0-4) Mean (SD) change from baseline: −0.17 (1.113)
  UWDRS Part III-handwriting (0-4) LSM (SE) change from baseline: 0.0 (0.04)
  UWDRS Part III-handwriting (0-4) Mean (SD) change from baseline: −0.1 (0.38)
  UWDRS Part III-speech (0-4) LSM (SE) change from baseline: −0.1 (0.04)
  UWDRS Part III-speech (0-4) Mean (SD) change from baseline: −0.1 (0.38)
  Transformed CGI-I Mean (SD): −0.5 (0.82)
Week 48
  CGI-S (1 to 7, 1 is normal) LSM (SE) change from baseline: −0.4 (0.07)
  CGI-S (1 to 7, 1 is normal) Mean (SD) change from baseline: −0.5 (0.94)
  UWDRS Part II (0-40) LSM (SE) change from baseline: −0.7 (0.21)
  UWDRS Part II (0-40) Mean (SD) change from baseline: −0.7 (2.70)
  UWDRS Part III (0-175) LSM (SE) change from baseline: −2.47 (0.638)
  UWDRS Part III (0-175) Mean (SD) change from baseline: −2.32 (7.735)
  UWDRS Part III functional subscale (0-10) LSM (SE) change from baseline: −0.230 (0.0569)
  UWDRS Part III functional subscale (0-10) Mean (SD) change from baseline: −0.235 (0.6976)
  UWDRS Part III-arising from chair (0-4) LSM (SE) change from baseline: 0.0 (0.04)
  UWDRS Part III-arising from chair (0-4) Mean (SD) change from baseline: 0.0 (0.40)
  UWDRS Part III-gait (0-4) LSM (SE) change from baseline: −0.26 (0.104)
  UWDRS Part III-gait (0-4) Mean (SD) change from baseline: −0.18 (1.262)
  UWDRS Part III-handwriting (0-4) LSM (SE) change from baseline: −0.1 (0.04)
  UWDRS Part III-handwriting (0-4) Mean (SD) change from baseline: −0.2 (0.59)
  UWDRS Part III-speech (0-4) LSM (SE) change from baseline: −0.1 (0.04)
  UWDRS Part III-speech (0-4) Mean (SD) change from baseline: −0.1 (0.53)
  Transformed CGI-I Mean (SD): −0.7 (0.91)
Week 72
  CGI-S (1 to 7, 1 is normal) LSM (SE) change from baseline: −0.5 (0.07)
  CGI-S (1 to 7, 1 is normal) Mean (SD) change from baseline: −0.6 (1.10)
  UWDRS Part II (0-40) LSM (SE) change from baseline: −1.0 (0.22)
  UWDRS Part II (0-40) Mean (SD) change from baseline: −1.2 (2.92)
  UWDRS Part III (0-175) LSM (SE) change from baseline: −3.47 (0.672)
  UWDRS Part III (0-175) Mean (SD) change from baseline: −3.27 (9.840)
  UWDRS Part III functional subscale (0-10) LSM (SE) change from baseline: −0.253 (0.0604)
  UWDRS Part III functional subscale (0-10) Mean (SD) change from baseline: −0.290 (0.8908)
  UWDRS Part III-arising from chair (0-4) LSM (SE) change from baseline: −0.1 (0.04)
  UWDRS Part III-arising from chair (0-4) Mean (SD) change from baseline: −0.1 (0.57)
  UWDRS Part III-gait (0-4) LSM (SE) change from baseline: −0.15 (0.110)
  UWDRS Part III-gait (0-4) Mean (SD) change from baseline: −0.12 (1.321)
  UWDRS Part III-handwriting (0-4) LSM (SE) change from baseline: −0.2 (0.05)
  UWDRS Part III-handwriting (0-4) Mean (SD) change from baseline: −0.2 (0.59)
  UWDRS Part III-speech (0-4) LSM (SE) change from baseline: −0.1 (0.04)
  UWDRS Part III-speech (0-4) Mean (SD) change from baseline: −0.1 (0.51)
  Transformed CGI-I Mean (SD): −0.5 (0.86)
Week 96
  CGI-S (1 to 7, 1 is normal) LSM (SE) change from baseline: −0.5 (0.09)
  CGI-S (1 to 7, 1 is normal) Mean (SD) change from baseline: −0.6 (0.97)
